Measurements taken from PMC7733237 (Organic & biomolecular chemistry, 2009).

Test system: PBM cells
Assay: Cytotoxicity in uninfected PHA-stimulated human PBM cells
Details: read-out: Cytotoxicity (IC50) PBM cells, 6 days, cell growth

Question: With `Cc1cn([C@H]2C[C@H](N=[N+]=[N-])[C@@H](CO)O2)c(=O)[nH]c1=O` [AZT, 3′-azido-3′-deoxythymidine] as the molecule, how does the IC50 read?
Answer: > 100 µM
